Measured values as given in patent publication US5491159A, “2-(3,5-di-tert-butyl-4-hydroxy-phenyl)-oxazoles as anti-atherosclerotic agents” (American Home Products Corporation, priority 1994, dated 1996).

Legend:
rabbit or monkey LDL = assay: Inhibition of Copper Ion Mediated Oxidation of Low Density Lipoprotein (in vitro); type: biochemical; details: Cu^+2, rabbit or monkey LDL, 37° C., 90 minutes, absorbance at 532 nm; non-linear regression log [I] vs. % inhibition
Experimental: In this in vitro assay, the inhibition of Cu^+2 mediated oxidation of rabbit or monkey LDL by an invention compound is determined spectrophotometrically. Oxidation of LDL results in the formation of LDL-diene which absorbs light at 532 nm. Inhibition of oxidation of LDL leads to a decrease in absorbance at 532 nm.
Rabbit or monkey LDL is prepared according to the procedures of Havel, Eder and Gragdon, "The Distribution and Chemical Composition of Ultracentrifugally Separated Lipoproteins in Human Serum,: J. Clin. Invest. 34, 1345-1353 (1955) and Parhtasarathy, Wieland and Steriberg, "A Role for Endothelial Cell Lipoxygenase in the Oxidative Modification of Low Density Lipoprotein, " Proc. Natl. Acad. Sci. USA 86, 1046-1050 (1989). Test compound solutions are prepared by dissolving the invention compounds in ethanol at concentrations up to 248 μM. The medium used is Dulbecco's phosphate buffered saline containing 0.5 mg/ml bovine serum albumin. For standards, 0 to 10 μl of an aqueous solution of 1,1,3,3-tetraethoxypropane (1 μmol/ml H2 O) in 4.1 ml of medium is used.
Test compound solution (100 μl) is added to 4 ml of medium in incubation tubes. To each tube is added 10 μl of LDL solution and 25 μl of aqueous copper sulfate solution (1.32 mg/ml H2 O). The tubes are incubated at 37° C. for 90 minutes and the oxidation reaction quenched by addition of 1 ml of thiobarbituric acid solution (0.67% in 50% acetic acid). The tubes are heated at 90° C. for 1 hour, then chilled in an ice bath and the chromophore extracted into 2 ml of n-butanol. Absorbence is read at 532 nm and the results are reported as nmols of malondialdehyde equivalents.
Significant differences (p<0.05) are determined by the Dunnett T-test or by the Student-Newman Keuls Test for significant differences between means. The assay is conducted using several concentrations [I] of the inhibitor test compounds. The LDL solution concentrations at different experiments were either 1.5 mg/ml, 2.5 mg/ml or 10.3 mg/ml. The IC50 is determined by non-linear regression, plotting log [I] vs. % inhibition. (Reference: K. Yagi, Biochemical Medicine 15, 212-216 (1976)).

LDL [1] = details: cited from earlier work
LDL [2] = details: cited from earlier work; remark: listed apart in the source
WHHL rabbits = details: cited from earlier work

COC(=O)Cc1nc(-c2cc(C(C)(C)C)c(O)c(C(C)(C)C)c2)oc1C [Example 1, [2-(3,5-di-tert-butyl-4-hydroxyphenyl)-5-methyloxazol-4-yl]-acetic acid methyl ester]
IC50 (rabbit or monkey LDL): 70 nM

Cc1oc(-c2cc(C(C)(C)C)c(O)c(C(C)(C)C)c2)nc1CC(=O)O [Example 2, [2-(3,5-di-tert-butyl-4-hydroxyphenyl)-5-methyloxazol-4-yl]-acetic acid]
IC50 (rabbit or monkey LDL): 160 nM

CCOC(=O)Cc1nc(-c2cc(C(C)(C)C)c(O)c(C(C)(C)C)c2)oc1C [Example 3, [2-(3,5-di-tert-butyl-4-hydroxyphenyl)-5-methyloxazol-4-yl]-acetic acid ethyl ester]
IC50 (rabbit or monkey LDL): 270 nM

COC(=O)Cc1coc(-c2cc(C(C)(C)C)c(O)c(C(C)(C)C)c2)n1 [Example 4, [2-(3,5-di-tert-butyl-4-hydroxyphenyl)-oxazol-4-yl]-acetic acid methyl ester]
IC50 (rabbit or monkey LDL): 250 nM

COC(=O)NC(=O)Cc1nc(-c2cc(C(C)(C)C)c(O)c(C(C)(C)C)c2)oc1C [Example 5, {2-[2-(3,5-di-tert-butyl-4-hydroxyphenyl)-5-methyloxazol-4-yl]acetyl}carbamic acid methyl ester]
IC50 (rabbit or monkey LDL): 230 nM

CC(C)(Sc1cc(C(C)(C)C)c(O)c(C(C)(C)C)c1)Sc1cc(C(C)(C)C)c(O)c(C(C)(C)C)c1 [probucol]
IC50 (rabbit or monkey LDL): 270 nM
inhibition of cell mediated oxidative modification of LDL (in words) (LDL [1]): inhibits both cell mediated and Cu^+2 mediated oxidative modification of LDL
inhibition of Cu^+2 mediated oxidative modification of LDL (in words) (LDL [2]): inhibits both cell mediated and Cu^+2 mediated oxidative modification of LDL
inhibition of the formation of atherosclerotic lesions (in words) (WHHL rabbits): inhibit the formation of atherosclerotic lesions in WHHL rabbits
